Data as given in US9796719B2, “Compounds and pharmaceutical compositions thereof for the treatment of inflammatory disorders” (GALAPAGOS NV, priority 2013, dated 2017).

How the values were obtained:
hENPP2 [1] = target: T1, hENPP2 (UniProtKB/SwissProt Sequence ref Q13822) (Homo sapiens (Human), UniProt Q13822); test: LPC hENPP2 assay (choline release, LPC as substrate); type: biochemical
Method in brief: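 Detection is coupled: choline oxidase produces peroxide, which HRP uses to form quinoneimine dye from TOOS and 4-aminoantipyrine, read at 555 nm. The reaction is stopped with 20 mM EGTA in the developer mix, then incubated 30 min at room temperature; inhibition lowers signal.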

hENPP2 [2] = target: T1, hENPP2; test: FS3 hENPP2 assay (fluorogenic substrate FS-3); type: biochemical; settings: hENPP2, FS-3 as substrate
Method in brief: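 Compound dilutions (1/5 steps, top concentration as added 20 μM) were preincubated 30 min at room temperature with hENPP2 (0.4 or 0.64 μg/mL final) in pH 8.0 Tris buffer containing NaCl, KCl, MgCl2, CaCl2 and 0.1% fatty-acid-free BSA. FS-3 (0.75 μM as added) was then hydrolysed for 30 min at 30 °C, and fluorescence was read at 485/520 nm.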

LPA 18:2 [3] = test: Rat whole blood (plasma) LPA assay; type: biochemical
Method: (§1) Whole blood is collected from rats or mouse by exsanguinations on sodium heparin tube, then after centrifugation at 3000 rpm for 15 min at 4° C., plasma is stored at −80° C. Compounds are diluted in DMSO in concentration dependent manner then 0.5 μL are dispensed into 96-wells plate placed in ice. Plasma is defrosted on ice then 49.5 μL of plasma are added into the well containing 0.5 μL of compound (1% DMSO final). Plates are covered with a lid in polypropylene and incubated at +37° C., 5% CO2, for 2 h under gentle shaking (except controls which are stored at −20° C.).
(§2) At the end of the incubation, controls are defrosted in ice and transferred in the incubated plates for LC-MS/MS analysis with a non GLP-validated method. For the analysis, plasma proteins from a 10 μL incubated plates are precipitated with an excess of methanol containing the internal standard, LPA 17:0. After centrifugation, the corresponding supernatant is injected on a C18 column. Analytes are eluted out of the column under isocratic conditions. An API5500 QTRAP mass spectrometer (ABSciex™) is used for the detection of LPA 18:2. No calibration curve is prepared for LPA 18:2, however relative quantities are evaluated based on the peak area.

[4] = tested on: cells recovered in the BALF; test: Tobacco smoke (TS) model, lungs inflammatory cells recruitment; type: in vivo, mouse; settings: TS-exposed mice
Method: The aim of this experiment is to evaluate the efficacy and potency of a test compound administered p.o., once or twice daily on days 6 to 11, vs reference compounds, on pulmonary inflammation induced by 11 days of TS-exposure in female C57BL/6J mice, by assessing the effect of a test compound on the tobacco smoke induced recruitment of inflammatory cells to the lungs.
The test compounds are formulated in PEG200/0.5% methylcellulose (25/75, v/v) and are given at a dose volume of 10 mL/kg. Roflumilast and Dexamethasone are included as positive […] control, respectively. Each treatment group consists of 10 mice.
A first group of mice is subjected to daily TS-exposure for 5 consecutive days and sacrificed on the day 6, 24 h after the final TS-exposure.
A second group is exposed to air for 5 consecutive days (sham exposure) and sacrificed on the day 6, 24 h after the final air-exposure.
Compound and reference-treated groups are subjected to daily TS-exposure for 11 consecutive days and sacrificed on the day 12, 24 h after the final TS-exposure. Mice are dosed p.o. on days 6 to 11, twice daily, 1 h prior to and 6 h after each TS-exposure, with either vehicle, or the test compound at 3, 5, 10 or 30 mg/kg. Another group is dosed p.o. on days 6 to 11, once daily, 1 h prior to each TS-exposure, with either vehicle, or the test compound at a selected dose, for example 10 mg/kg.
An additional group is dosed p.o., once daily, on days 6 to 11, with roflumilast at 5 mg/kg, 1 h prior to each TS-exposure. Dexamethasone is dosed p.o., twice daily, on days 6 to 11, at 0.3 mg/kg, 1 h prior to and 6 h after each TS-exposure.
For each mouse, a BAL is performed using 0.4 mL of PBS. […]
The lungs are dissected out and the left lobes are removed, snap-frozen and stored at −80° C. […] Cell data are presented as individual data points for each animal and the mean value calculated for each group. […]
Percentage inhibitions for the cell data are calculated using the formula below: […]

LPA 18:2 [5] = test: Mouse whole blood (plasma) LPA assay; type: biochemical
Method: as §1, §2

Row | IC50 (hENPP2 [1]) | IC50 (hENPP2 [2]) | IC50 (LPA 18:2 [3]) | IC50 (LPA 18:2 [5]) | Structure (SMILES) | number of cells recovered in the BALF (macrophage cells, epithelial cells, neutrophils) ([4]; 10 mg/kg twice daily p.o.) | number of cells recovered in the BALF (macrophage cells, epithelial cells, neutrophils) ([4]; 3 mg/kg twice daily p.o.)
1 | > 1000 nM | 0.01 to 25 nM | > 1000 nM | – | CCc1nc2cnc(N3CCN(C(=O)CN4CC(O)C4)CC3)cn2c1N(C)c1nc(-c2ccc(F)cc2)c(C#N)s1 [Cpd 12, 2-((2-ethyl-6-(4-(2-(3-hydroxyazetidin-1-yl)acetoyl)piperazin-1-yl)imidazo[1,2-a]pyrazin-3-yl)(methyl)amino)-4-(4-fluorophenyl) thiazole-5-carbonitrile] | significantly inhibited | –
2 | 100 to 500 nM | 0.01 to 25 nM | – | > 1000 nM | CCc1nc2cnc(C3=CCN(CC(=O)N4CC(O)C4)CC3)cn2c1N(C)c1nc(-c2ccc(F)cc2)c(C#N)s1 [Cpd 21, 2-((2-ethyl-6-(1-(2-(3-hydroxyazetidin-1-yl)-2-oxoethyl)-1,2,3,6-tetrahydropyridin-4-yl)imidazo[1,2-a]pyrazin-3-yl)(methyl)amino)-4-(4-fluorophenyl) thiazole-5-carbonitrile] | – | –
3 | 100 to 500 nM | – | > 1000 nM | – | CCc1nc2cnc(N3CCN(CC(=O)N4CC(O)C4)CC3)cn2c1N(C)c1nc(-c2ccc(F)cc2)c(C#N)s1 [Cpd 2, 2-((2-ethyl-6-(4-(2-(3-hydroxyazetidin-1-yl)-2-oxoethyl)piperazin-1-yl)imidazo[1,2-a]pyrazin-3-yl)(methyl)amino)-4-(4-fluorophenyl) thiazole-5-carbonitrile] | significantly inhibited | significantly inhibited
